{"source": "patent US10576145B2", "about": "“CD200 inhibitors and methods of use thereof” (REGENTS OF THE UNIVERSITY OF MINNESOTA, priority 2014, dated 2020)", "key": {"GL261 tumor bearing mice": {"tested_on": "GL261 tumor bearing mice", "assay": "OVA+Poly:ICLC vaccination of GL261 tumor bearing mice +/- CD200R antagonist: OVA-specific CD8 T cells and recall cytokines", "assay_type": "in vivo, C57BL/6 mice", "details": "for SIINFEKL-specific CD8 T cells (OVA-specific T cell expansion): blood, flow cytometry", "excerpt": "FIGS. 2A-2B. FIG. 2A) Vaccination scheme. Tumor bearing or non-tumor bearing mice were vaccinated on day 2 and 8 with an agonist (4012) or antagonist (6059) only, and on days 3-6 and 10 with OVA+Poly:ICLC+/−the competitive inhibitor 6059 (antagonist of a agonist). FIG. 2B) Mice were bled on day 10, whole blood was stained with an anti-CD8 and SI[[N]]INFEKL (SEQ ID NO: 11) specific detramer, lysed and analyzed by flow cytometry.\nFIGS. 3A-3B. Tumor bearing or non-tumor bearing mice were vaccinated on day 2 and 8 with an agonist or antagonist only, and on days 3-6 and 10 with OVA+Poly:ICLC+/−the competitive inhibitor 6059 (antagonist of a agonist). On day 10, were harvested and stimulated with OVA protein to measure a recall response via cytokine release. FIG. 3A) TNF alpha (PG/ML) levels from tumor bearing mice. FIG. 3B) INF gamma (PG/ML) levels in tumor bearing mice.\n(§1) FIGS. 12A-12C. […] Tumor and non-tumor bearing mice were vaccinated with OVA+Poly:ICLC+/−the CD200R antagonist 6059 and analyzed for FIG. 12A) SIINFEKL/Kb+CD8+ T cell expansion (‘SIINFEKL’ disclosed as SEQ ID NO: 11). FIG. 12B) Lymphocytes were harvested and stimulated with SIINFEKL peptide (SEQ ID NO: 11). Supernatants were analyzed for TNFα and IFNγ secretion. FIG. 12C) The antagonist 6059 was added to OVA+exosomes. Error bars indicate +/−SEM (n=4/group; *P<0.05; by t-test). FIGS. 12A-12C discloses ‘SIINFEKL’ disclosed as SEQ ID NO: 11.\nFIGS. 18A-18D. […] (FIG. 18A & FIG. 18B) Tumor bearing mice were vaccinated with OVA+Poly:ICLC+/−antagonist then analyzed for OVA-specific T cells and cytokine production following in vitro restimulation with OVA. Tumor bearing mice were vaccinated with saline (n=10), tumor lysate+CpG (n=10) or tumor lysate+CpG+antagonist 6059 (n=10). (FIG. 18C) Mice were imaged weekly for tumor growth and (FIG. 18D) followed for survival. Error bars are ±SEM, *p<0.05, ** p<0.001 was determined by one-way ANOVA, post hoc analysis by Dunn's multiple comparison test, log-rank analysis was used for survival. […]\nAnti-mouse CD8α-Pacific Blue (clone 53-6.7) was purchased from eBioscience. A SIINFEKL/K^b dextramer-PE (‘SIINFEKL’ disclosed as SEQ ID NO: 11) was used for detection of SIINFEKL/K^b-binding CD8 T-cells (Immunodex) (‘SIINFEKL’ disclosed as BEQ ID NO: 11). […] A 100 μl sample of whole blood was immediately analyzed for percentage of MDSCs ((Lineage-FITC (CD3, CD14, CD16, CD19, CD20, CD56) CD33-APC, HLA-DR-PerCp)) by flow cytometry. Sera CD200 levels were determined by ELISA (Sino Biological Inc.).\nLymph nodes were homogenized in RPMI media containing 10% FBS, penicillin/streptomycin (100 U/ml), and 0.1 mg/ml Normocin (Invivogen). […] Fifty microliters of supernatant was analyzed for IFN-γ using a flow cytometric bead array according to the manufacturer's protocol (BD Biosciences)."}, "[1]": {"tested_on": "naïve splenocytes exposed to GL261 cells", "assay": "GL261 cells incubated with naive splenocytes in trans-well plate +/- CD200R antagonist: MDSC expansion and IFN-γ", "assay_type": "cell-based, mouse", "method": "FIGS. 17A-17B. CD200R antagonist blocks MDSC expansion and tumor suppressive effects. (FIG. 17A) Murine glioma GL261 was incubated with naïve splenocytes in a trans-well plate+/−CD200R antagonist and analyzed for MDSC expansion and cytokine production. (FIG. 17B) Naïve splenocytes were pulsed with purified CD200+/−CD200R antagonist and analyzed for MDSC expansion and arginase-I production. Error bars are ±SEM, statistical significance was determined by one-way ANOVA, post hoc analysis by Dunn's multiple comparison test, *p<0.05, ** p<0.001.\nTo determine the level of MDSC expansion when splenocytes were exposed to tumor cells, splenocytes were also harvested and purified as described above; 300,000 splenocytes were plated in the bottom of 24 well transwell plates containing a 0.4-micron filter. Following 24 hr incubation, 30,000 GL261 cells were plated on the transwell insert with and without the CD200R antagonist 6059. Total volume was 700 μl/well so that the insert was submerged in the media within the wells. Cells were incubated for 5 days, harvested, and stained with CD11b and GR-1 to determine MDSC levels. In another set of wells, OVA was added to the wells 24 hours after the splenocytes were plated. Following another 72 hr incubation, 3×10^5 purified CD8 T-cells isolated from an OT-I mouse and were added to the wells and incubated for an additional 72 hrs. […]"}, "non-tumor bearing mice": {"tested_on": "non-tumor bearing mice", "assay": "Vaccination of non-tumor bearing mice with OVA + glioma-derived exosomes + antagonist", "assay_type": "in vivo", "method": "as §1\nWhether the different antagonists described by Gorczynski et. al. (J Surg Res 2008; 145(1): 87-96) could modulate or reverse the suppressive effects of the tumor microenvironment was also investigated. It was concluded that different antagonists either act through different CD200R isoforms or have different biological effects on the same receptor. These conclusions were supported by experiments where splenocytes were pulsed with OVA+selected CD200R antagonists (6061, 6069, 4004, 4006, 4013) for 24 hours. The splenocytes were then washed and cultured for 48 hours with the addition of OT-1 T cells. The cultures were then assessed for cytokine production using a flow cytometric bead array. […] Other antagonists were similarly evaluated."}}, "note": "“Also recorded” adds a separate entry of the source.", "data": [{"sequence": "NTIGDGGCY [Antagonist 6059]", "values": [{"measurement": "Suppressive effects of the tumor environment (overall statement)", "setting": "GL261 tumor bearing mice; prime boost model, tumor-bearing mice", "result": "reversed the suppressive effects in tumor-bearing mice; also recorded: reverses the suppressive effects of the tumor environment; also recorded: blocks CD200 induced immune suppression"}, {"measurement": "SIINFEKL-specific CD8 T cells (OVA-specific T cell expansion)", "setting": "GL261 tumor bearing mice; tumor bearing mice, OVA+Poly:ICLC +/- antagonist", "result": "reversed tumor induced suppression; also recorded: increased numbers of SIINFEKL-specific CD8 T-cells; also recorded: reversed the suppressive effects of the tumor microenvironment"}, {"measurement": "SIINFEKL-specific CD8 T cells (OVA-specific T cell expansion)", "setting": "GL261 tumor bearing mice; tumor bearing mice, OVA+Poly:ICLC +/- antagonist, listed as CD200 antagonist", "result": "significantly enhanced the expansion of a SIINFEKL/CD8 T cell population"}, {"measurement": "TNFα and IFNγ production after restimulation of cervical lymph node lymphocytes (recall response)", "setting": "GL261 tumor bearing mice; tumor bearing mice, OVA+Poly:ICLC +/- antagonist, restimulation with OVA/SIINFEKL, 48 hrs", "result": "modulate/reverse glioma-induced suppression; also recorded: significantly enhanced TNFγ and IFNγ production; also recorded: reversed the suppressive effects of the tumor microenvironment"}, {"measurement": "IFN-γ production of OT-I CD8 T-cells in response to OVA", "setting": "[1]; trans-well with GL261 cells", "result": "blocked both the expansion of MDSCs as well as the production of IFN-γ"}, {"measurement": "Expansion of CD11b+Gr1+ MDSC induced by GL261 cells", "setting": "[1]; trans-well, 5 days", "result": "blocked both the expansion of MDSCs"}, {"measurement": "Suppression induced by glioma-derived exosomes", "setting": "non-tumor bearing mice", "result": "partially reversed the suppression induced by exosomes"}]}]}
